Test results published in patent publication US20250099421A1 (priority 2023, published 2025).

How the values were obtained:
[1] = cited from earlier work
[2] = system: rat monosodium iodoacetate model of knee osteoarthritis; settings: in vivo

Compound | half-life in-vivo [1] | weight bearing asymmetry at acute time points on Day 14 versus vehicle [2]
hyaluronic acid [HA] | hours-days | 
COc1cc(CNC(=O)CCCC/C=C/C(C)C)ccc1O [CAP, capsaicin] |  | increased weight bearing asymmetry
C=C(C)[C@]12C[C@@H](C)[C@@]34O[C@](Cc5ccccc5)(O[C@@H]1[C@@H]3C=C(COC(=O)Cc1ccc(O)c(OC)c1)C[C@]1(O)C(=O)C(C)=C[C@@H]41)O2 [RTX, resiniferatoxin] |  | increased weight bearing asymmetry
